Each structure is given as a SMILES string. Where only a bound is given, the exact number is not on record here.

The assay addresses T1, Drak2 (Homo sapiens, UniProt O94768).
T1 sequence (O94768 1-372): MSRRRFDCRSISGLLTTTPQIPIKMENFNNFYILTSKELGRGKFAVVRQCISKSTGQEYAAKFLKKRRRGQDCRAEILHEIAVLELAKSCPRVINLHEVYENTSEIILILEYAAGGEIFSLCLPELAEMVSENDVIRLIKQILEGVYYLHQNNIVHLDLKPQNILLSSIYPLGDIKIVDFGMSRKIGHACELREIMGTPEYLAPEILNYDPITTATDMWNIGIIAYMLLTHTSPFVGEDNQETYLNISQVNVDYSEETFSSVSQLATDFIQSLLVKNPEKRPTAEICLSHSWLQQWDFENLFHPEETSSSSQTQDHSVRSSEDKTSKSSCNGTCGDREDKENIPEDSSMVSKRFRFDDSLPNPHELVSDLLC
In words: Drak2 activity test, ADP-Glo kinase assay (Promega). It is filed as biochemical. Particulars: inhibition of Drak2 kinase activity, 2 h room temperature, activity range classes, read-out: IC50_Drak2. In general terms: In ADP-Glo the light output rises with the ADP produced.
As for `CN1CCC(Cn2cc3ccc(-c4cncc(-c5cc(NC(=O)CC6CCC6)cs5)n4)cc3n2)CC1` [Example A50, 2-cyclobutyl-N-(5-(6-(2-((1-methylpiperidin-4-yl)methyl)-2H-indazol-6-yl)pyrazin-2-yl)thiophen-3-yl)acetamide], the IC50 fell in the range of 11 to 100 nM. To `Cc1nn(C)c2cc(-c3cncc(-c4cc(NC(=O)CC5CCC5)cs4)n3)ccc12` [Example A51, 2-cyclobutyl-N-(5-(6-(1,3-dimethyl-1H-indazol-6-yl)pyrazin-2-yl)thiophen-3-yl)acetamide] belongs 101 to 1000 nM; to `O=C(CC1CCC1)Nc1csc(-c2cncc(-c3ccc4cn[nH]c4c3)n2)c1` [Example A52, N-(5-(6-(1H-indazol-6-yl)pyrazin-2-yl)thiophen-3-yl)-2-cyclobutylacetamide], 11 to 100 nM; to `CCCCC(=O)Nc1csc(-c2cncc(-c3ccc(C(=O)OC)c(OC)c3)n2)c1` [Example B1, Methyl 2-methoxy-4-(6-(4-pentanamidothiophen-2-yl)pyrazin-2-yl)benzoate], 101 to 1000 nM. For `CCCCC(=O)Nc1csc(-c2cncc(-c3ccc(C(=O)O)c(OC)c3)n2)c1` [Example B2, 2-methoxy-4-(6-(4-pentanamidothiophen-2-yl)pyrazin-2-yl)benzoic acid], the IC50 was in the range of 11 to 100 nM. With `CCCCC(=O)Nc1csc(-c2cncc(-c3ccc(C(N)=O)c(OC)c3)n2)c1` [Example B3, 2-methoxy-4-(6-(4-pentanamidothiophen-2-yl)pyrazin-2-yl)benzamide] the figure was 101 to 1000 nM; with `CCCCC(=O)Nc1csc(-c2cncc(-c3ccc(C(=O)Nc4nnn[nH]4)c(OC)c3)n2)c1` [Example B4, 2-methoxy-4-(6-(4-pentanamidothiophen-2-yl)pyrazin-2-yl)-N-(1H-tetrazol-5-yl)benzamide], 11 to 100 nM; with `CCCCC(=O)Nc1csc(-c2cncc(-c3ccc(C(=O)Nc4ncc[nH]4)c(OC)c3)n2)c1` [Example B5, 2-methoxy-4-(6-(4-pentanamidothiophen-2-yl)pyrazin-2-yl)-N-(1H-imidazol-2-yl) benzamide], 101 to 1000 nM.

As to `COc1cc(-c2cncc(-c3cc(NC(=O)C4CCCCC4)cs3)n2)ccc1C(=O)O` [Example B6, 4-(6-(4-(cyclohexanecarboxamido)thiophen-2-yl)pyrazin-2-yl)-2-methoxybenzoic acid], the IC50 fell in the range of 101 to 1000 nM. With `CCCCC(=O)Nc1csc(-c2cncc(-c3ccc(C(=O)NS(=O)(=O)N(C)C)c(OC)c3)n2)c1` [Example B7, 2-methoxy-4-(6-(4-pentanamidothiophen-2-yl)pyrazin-2-yl)-N-(N,N-dimethylsulfamoyl)benzamide] the figure was 101 to 1000 nM. As for `CCCCC(=O)Nc1csc(-c2cncc(-c3ccc(C(=O)Nc4nccs4)c(OC)c3)n2)c1` [Example B8, 2-methoxy-4-(6-(4-pentanamidothiophen-2-yl)pyrazin-2-yl)-N-(thiazol-2-yl)benzamide], the IC50 lay in the range of 1000 to 10000 nM. To `CCCC(=O)Nc1csc(-c2cncc(-c3ccc(C(=O)Nc4nnn[nH]4)c(OC)c3)n2)c1` [Example B9, 2-methoxy-4-(6-(4-butyramidothiophen-2-yl)pyrazin-2-yl)-N-(1H-tetrazol-5-yl)benzamide] belongs 101 to 1000 nM; to `COc1cc(-c2cncc(-c3cc(NC(C)=O)cs3)n2)ccc1C(=O)Nc1nnn[nH]1` [Example B10, 2-methoxy-4-(6-(4-acetamidothiophen-2-yl)pyrazin-2-yl)-N-(1H-tetrazol-5-yl)benzamide], 101 to 1000 nM.

With `CCC(=O)Nc1csc(-c2cncc(-c3ccc(C(=O)Nc4nnn[nH]4)c(OC)c3)n2)c1` [Example B11, 2-methoxy-4-(6-(4-propionamidothiophen-2-yl)pyrazin-2-yl)-N-(1H-tetrazol-5-yl)benzamide], the IC50 lay in the range of 101 to 1000 nM. To `COc1cc(-c2cncc(-c3cc(NC(=O)CC4CC4)cs3)n2)ccc1C(=O)Nc1nnn[nH]1` [Example B12, 2-methoxy-4-(6-(4-(2-cyclopropylacetamido)thiophen-2-yl)pyrazin-2-yl)-N-(1H-tetrazol-5-yl)benzamide] belongs 101 to 1000 nM. To `COc1cc(-c2cncc(-c3cc(NC(=O)Cc4ccco4)cs3)n2)ccc1C(=O)Nc1nnn[nH]1` [Example B13, 2-methoxy-4-(6-(4-(2-(furan-2-yl)acetamido)thiophen-2-yl)pyrazin-2-yl)-N-(1H-tetrazol-5-yl)benzamide] belongs 101 to 1000 nM. On to `COc1cc(-c2cncc(-c3cc(NC(=O)CC4CCCCC4)cs3)n2)ccc1C(=O)Nc1nnn[nH]1` [Example B14, 2-methoxy-4-(6-(4-(2-cyclohexylacetamido)thiophen-2-yl)pyrazin-2-yl)-N-(1H-tetrazol-5-yl)benzamide], for which the IC50 was in the range of 101 to 1000 nM. As for `CCCCC(=O)Nc1csc(-c2cncc(-c3ccc(C(=O)Nc4nnnn4C)c(OC)c3)n2)c1` [Example B15, 2-methoxy-4-(6-(4-pentanamidothiophen-2-yl)pyrazin-2-yl)-N-(1-methyl-1H-tetrazol-5-yl)-benzamide], the IC50 was 11 to 100 nM. As to `CCCCCC(=O)Nc1csc(-c2cncc(-c3ccc(C(=O)Nc4nnn[nH]4)c(OC)c3)n2)c1` [Example B16, 2-methoxy-4-(6-(4-hexanamidothiophen-2-yl)pyrazin-2-yl)-N-(1H-tetrazol-5-yl)benzamide], the IC50 was in the range of 101 to 1000 nM. With `CCCCCCC(=O)Nc1csc(-c2cncc(-c3ccc(C(=O)Nc4nnn[nH]4)c(OC)c3)n2)c1` [Example B17, 2-methoxy-4-(6-(4-heptanamidothiophen-2-yl)pyrazin-2-yl)-N-(1H-tetrazol-5-yl)benzamide] the figure was 1000 to 10000 nM. With `CCCCCCCC(=O)Nc1csc(-c2cncc(-c3ccc(C(=O)Nc4nnn[nH]4)c(OC)c3)n2)c1` [Example B18, 2-methoxy-4-(6-(4-octanamidothiophen-2-yl)pyrazin-2-yl)-N-(1H-tetrazol-5-yl)benzamide] the figure was more than 10000 nM; with `CCCCCCCCC(=O)Nc1csc(-c2cncc(-c3ccc(C(=O)Nc4nnn[nH]4)c(OC)c3)n2)c1` [Example B19, 2-methoxy-4-(6-(4-nonanamidothiophen-2-yl)pyrazin-2-yl)-N-(1H-tetrazol-5-yl)benzamide], more than 10000 nM. As for `CCCCCCCCCC(=O)Nc1csc(-c2cncc(-c3ccc(C(=O)Nc4nnn[nH]4)c(OC)c3)n2)c1` [Example B20, 2-methoxy-4-(6-(4-decanamidothiophen-2-yl)pyrazin-2-yl)-N-(1H-tetrazol-5-yl)benzamide], the IC50 was more than 10000 nM. With `CCCCCCCCCCC(=O)Nc1csc(-c2cncc(-c3ccc(C(=O)Nc4nnn[nH]4)c(OC)c3)n2)c1` [Example B21, 2-methoxy-4-(6-(4-undecanamidothiophen-2-yl)pyrazin-2-yl)-N-(1H-tetrazol-5-yl)benzamide] the figure was more than 10000 nM; with `CCCCC(=O)Nc1csc(-c2cncc(-c3ccc(C(=O)Nc4cn(C)c(C(=O)OC)n4)c(OC)c3)n2)c1` [Example B22, methyl 4-(2-methoxy-4-(6-(4-pentanamidothiophen-2-yl)pyrazin-2-yl)benzamido)-1-methyl-1H-imidazole-2-carboxylate], 101 to 1000 nM; with `CCCCC(=O)Nc1csc(-c2cncc(-c3ccc(C(=O)Nc4nnco4)c(OC)c3)n2)c1` [Example B23, 2-methoxy-4-(6-(4-pentanamidothiophen-2-yl)pyrazin-2-yl)-N-(1,3,4-oxadiazol-2-yl)benzamide], 11 to 100 nM. To `CCCCC(=O)Nc1csc(-c2cncc(-c3ccc(C(=O)Nc4nncs4)c(OC)c3)n2)c1` [Example B24, 2-methoxy-4-(6-(4-pentanamidothiophen-2-yl)pyrazin-2-yl)-N-(1,3,4-thiadiazol-2-yl)benzamide] belongs 1000 to 10000 nM. To `COc1cc(-c2cncc(-c3cc(NC(=O)CC4CC4)cs3)n2)ccc1C(=O)Nc1nnnn1C` [Example B25, 2-methoxy-4-(6-(4-(2-cyclopropylacetamido)thiophen-2-yl)pyrazin-2-yl)-N-(1-methyl-1H-tetrazol-5-yl)benzamide] belongs 11 to 100 nM. On to `COc1cc(-c2cncc(-c3cc(NC(=O)CC4CCC4)cs3)n2)ccc1C(=O)Nc1nnnn1C` [Example B26, 2-methoxy-4-(6-(4-(2-cyclobutylacetamido)thiophen-2-yl)pyrazin-2-yl)-N-(1-methyl-1H-tetrazol-5-yl)benzamide], for which the IC50 was in the range of 11 to 100 nM.

Consider `COc1cc(-c2cncc(-c3cc(NC(=O)CC4CCCC4)cs3)n2)ccc1C(=O)Nc1nnnn1C` [Example B27, 2-methoxy-4-(6-(4-(2-cyclopentylacetamido)thiophen-2-yl)pyrazin-2-yl)-N-(1-methyl-1H-tetrazol-5-yl)benzamide], for which the IC50 is 11 to 100 nM. To `COc1cc(-c2cncc(-c3cc(NC(=O)CC4CCCCC4)cs3)n2)ccc1C(=O)Nc1nnnn1C` [Example B28, 2-methoxy-4-(6-(4-(2-cyclohexylacetamido)thiophen-2-yl)pyrazin-2-yl)-N-(1-methyl-1H-tetrazol-5-yl)benzamide] belongs 101 to 1000 nM; to `CCCCC(=O)Nc1csc(-c2cncc(-c3ccc(C(=O)N4CCOCC4)c(OC)c3)n2)c1` [Example B29, N-(5-(6-(3-methoxy-4-(morpholine-4-carbonyl)phenyl)pyrazin-2-yl)thiophen-3-yl)pentanamide], 11 to 100 nM. To `CCCCC(=O)Nc1csc(-c2cncc(-c3ccc(CN4CCOCC4)c(OC)c3)n2)c1` [Example B30, N-(5-(6-(3-methoxy-4-(morpholinomethyl)phenyl)pyrazin-2-yl)thiophen-3-yl)pentanamide] belongs 101 to 1000 nM.

The record behind these values is patent US20240308992A1 (Biopolar Youtang(Guangdong) Pharmaceutical Co., Ltd., priority 2021, published 2024).
